Reference: patent US20100029615A1, “BENZIMIDAZOLE DERIVATIVES” (priority 2006, published 2010)

These compounds were tested against T1, SMO (Mus musculus, UniProt P56726) (assay: Smoothened (SMO)/Sonic Hedgehog (SHh) Transient Transcriptional Activation Assay (Gli-luciferase reporter in C3H10T1/2 cells)). Settings: 2 uM test compound, SHh 250 ng/ml, 20 hrs.
T1 construct: endogenous in cells; host or cells: C3H10T1/2 (ATCC #CCL-226)
Format: cell-based, murine
Experimental: As noted above, the compounds of the invention are useful as inhibitors of SMO. Methods for determining the in vitro activity of these compounds are described below: Smoothened (SMO)/Sonic Hedgehog (SHh) Transient Transcriptional Activation Assay
On Day 1,2×10^6 C3H10T1/2 cells (ATCC #CCL-226) were split and seeded in 12 mls of growth medium Basal Medium Eagle (BME, Invitrogen #21010-046) supplemented with 2 mM L-glutamine (Invitrogen #25030-081), 0.1 units/ml penicillin and 0.1 ug/ml streptomycin (Invitrogen #15140-122), and 10% Fetal Bovine Serum (FBS, Invitrogen #16140-071) in a T-75 flask (Costar #3376). They were allowed to attach for 4 hours at 37° C., 5% CO2. The cells were then transfected using Fugene 6 (Roch #11 814 443 001) in the following reaction: 48 ul Fugene 6 and 745 ul Opti-MEM (Invitrogen #31985-070) were mixed and allowed to sit at room temperature for 5 minutes. 8 ug of pGL4.14/mGli(CS) DNA (10× murine Gli response elements and minimal CS promoter) and 0.5 ug of pEGFP DNA (Clontech) were added, gently mixed and incubated at room temperature for 20 minutes. This entire transfection mix was then added to the T-75 flask containing the cells. The cells were incubated at 37 °C, 5% C02 for 18-24 hrs.
On Day 2, the transfected cells were trypsinized and seeded into white 96 well plates (Costar #3917) in 100ul/well of growth medium at a concentration of 20,000 cells/well. The cells were allowed to recover for 4 hrs before adding serum starvation medium Dulbecco's Modified Eagle Medium (DMEM, Invitrogen #21063-029) supplemented with 2 mM L-glutamine, 0.1 units/ml penicillin and 0.1 ug/ml streptomycin, and 0.5% Calf Serum (CS, Invitrogen #26170-043). The growth media was aspirated off, and the cells were rinsed with 100 ul of starvation media. 95 ul of starvation media was then added to each well. The cells were incubated for 20 hrs at 37 °C, 5% C02.
On Day 3, cells were dosed with test compounds at a final concentration ranging from 2 uM to 2 nM. Immediately after dosing cells with compounds, recombinant human sonic hedgehog (SHh, R&D Systems #1845-SH) was add to a final concentration of 250 ng/ml. A 25 ug vial of SHh was reconstituted with 250 ul PBS/0.1% BSA to give a 100 ng/ul working stock. This working stock was then diluted 1:20 in starvation media. The transfected cells were incubated with compounds and SHh for 20 hrs at 37 °C, 5% C02.
Luciferase assays were conducted on Day 4 using Dual-Glo Luciferase assay system (Promega #E2940) according to Promega's protocol. Briefly, Dual-Glo luciferase reagent was made up and 100 uls were added to each well of the 96 well plate containing media. Plates were shaken at room temperature for 10 minutes, and then read on TopCount (Perkin-Elmer). The luminescence was recorded.

T1 sequence (P56726 33-793): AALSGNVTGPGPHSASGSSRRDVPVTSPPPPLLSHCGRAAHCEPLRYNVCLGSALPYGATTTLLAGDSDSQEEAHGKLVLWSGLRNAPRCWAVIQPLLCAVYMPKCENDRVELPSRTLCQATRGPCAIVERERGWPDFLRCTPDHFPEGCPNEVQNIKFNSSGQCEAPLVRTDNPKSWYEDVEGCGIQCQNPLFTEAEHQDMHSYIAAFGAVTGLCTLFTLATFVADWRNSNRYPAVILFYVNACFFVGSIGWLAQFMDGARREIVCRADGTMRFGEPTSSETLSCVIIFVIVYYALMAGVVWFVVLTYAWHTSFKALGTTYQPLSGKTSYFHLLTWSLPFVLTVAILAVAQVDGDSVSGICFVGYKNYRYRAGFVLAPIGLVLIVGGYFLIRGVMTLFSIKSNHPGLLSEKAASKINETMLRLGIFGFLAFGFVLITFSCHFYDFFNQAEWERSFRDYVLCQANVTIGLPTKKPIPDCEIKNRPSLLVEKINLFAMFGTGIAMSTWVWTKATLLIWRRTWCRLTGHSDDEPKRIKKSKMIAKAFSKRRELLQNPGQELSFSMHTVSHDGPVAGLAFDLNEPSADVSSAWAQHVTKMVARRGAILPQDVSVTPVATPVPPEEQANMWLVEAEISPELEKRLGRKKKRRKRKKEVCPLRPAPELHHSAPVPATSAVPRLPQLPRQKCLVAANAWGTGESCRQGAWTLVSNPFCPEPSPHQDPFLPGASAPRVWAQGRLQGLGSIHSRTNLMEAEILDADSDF

Row | SMILES | SMO % inhibition at 2 uM [%]
1 | COc1cc(OC)cc(C(=O)NC2CCCC(c3nc4cc(C(=O)N(C)C)ccc4[nH]3)C2)c1 (single isomer, unassigned) [Example 8, 2-(3-(3,5-dimethoxybenzamido)cyclohexyl)-N,N-dimethyl-1H-benzo[d]imidazole-5-carboxamides (cis- and trans-isomers)] | 68

Same assay, conditions: C3H 10T1/2, 2 uM test compound, SHh 250 ng/ml, 20 hrs, read-out: SMO % inhibition at 2 uM

Row | inhibition at 2 µM [%] | SMILES
2 | 98 | COc1cc(OC)cc(C(=O)NC2CCCC(c3nc4ccccc4n3CCO)C2)c1 (racemic) [Example 13, N-(3-(1-(2-Hydroxyethyl)-1H-benzo[d]imidazol-2-yl)cyclohexyl)-3,5-dimethoxybenzamide (cis-isomer)]
3 | 107 | O=C(NC1CCCC(c2nc3ccccc3[nH]2)C1)c1ccc2c(c1)OCCO2 (centres unmarked) [Example 1, N-(3-(1H-benzo[d]midazol-2-yl)cyclohexyl)-2,3-dihydrobenzo[b][1,4]dioxine-6-carboxamide]
4 | 107 | Cn1c([C@H]2CCC[C@@H](NC(=O)c3ccc4c(c3)OCCO4)C2)nc2ccccc21 [Example 3, N-((1R,3S)-3-(1-methyl-1H-benzo[d]imidazol-2-yl)cyclohexyl)-2,3-dihydrobenzo[b][1,4]dioxine-6-carboxamide]
5 | 105 | COc1cc(OC)cc(C(=O)N[C@@H]2CCC[C@H](c3nc4ccc(C(F)(F)F)cc4[nH]3)C2)c1 [Example 4, 3,5-Dimethoxy-N-((1R,3S)-3-[5-(trifluoromethyl)-1H-benzo[d]imidazol-2-yl)cyclohexyl)benzamide]
6 | 102 | COc1cc(OC)cc(C(=O)NC2CCCC(c3nc4ccc(C)cc4[nH]3)C2)c1 (centres unmarked) [Example 5, 3,5-dimethoxy-N-[3-(5-methyl-1H-benzo[d]imidazol-2-yl)cyclohexyl)benzamide]
7 | 58 | CCn1c(C2CCCC(NC(=O)c3ccc4c(c3)OCCO4)C2)nc2ccccc21 (centres unmarked) [Example 6, N-(3-(1-Ethyl-1H-benzo[d]imidazol-2-yl)cyclohexyl)-2,3-dihydrobenzo[b][1,4]dioxine-6-carboxamide]
8 | 70 | CNC(=O)c1ccc2nc([C@H]3CCC[C@@H](NC(=O)c4cc(OC)cc(OC)c4)C3)[nH]c2c1 [Example 7, 2-(3-[3,5-dimethoxybenzamido)cyclohexyl)-N-methyl-1H-benzo[d]imidazole-5-carboxamide]
9 | 87 | COc1cc(OC)cc(C(=O)NC2CCCC(c3nc4cc(NC(C)=O)ccc4[nH]3)C2)c1 (centres unmarked) [Example 9, N-(3-(5-Acetamido-1H-benzo[d]imidazol-2-yl)cyclohexyl)-3,5-dimethoxybenzamide]
10 | 96 | COc1cc(OC)cc(C(=O)NC2CCCC(c3nc4cc(NC(=O)C(C)C)ccc4[nH]3)C2)c1 (centres unmarked) [Example 10, N-(3-(5-Isobutyramido-1H-benzo[d]imidazol-2-yl)cyclohexyl)-3,5-dimethoxybenzamide]
11 | 86 | COc1cc(OC)cc(C(=O)NC2CCCC(c3nc4ccc(NS(C)(=O)=O)cc4[nH]3)C2)c1 (centres unmarked) [Example 11, 3,5-Dimethoxy-N-(3-(5-(methylsulfonamido)-1H-benzo[d]imidazol-2-yl)cyclohexyl)benzamide]
12 | 62 | COc1cc(OC)cc(C(=O)NC2CCCC(c3nc4ccc(NS(=O)(=O)C(C)C)cc4[nH]3)C2)c1 (centres unmarked) [Example 12, 3,5-Dimethoxy-N-(3-(5-(propan-2-ylsulfonamido)-1H-benzo[d]imidazol-2-yl)cyclohexyl)]
13 | 95 | CN(C(=O)c1ccc2c(c1)OCCO2)C1CCCC(c2nc3ccccc3n2C)C1 (centres unmarked) [Example 14, N-Methyl-N-(3-(1-methyl-1H-benzo[d]imidazol-2-yl)cyclohexyl)-2,3-dihydrobenzo[b][1,4]dioxine-6-carboxamide]
14 | 94 | N#CCCn1c(C2CCCC(NC(=O)c3ccc4c(c3)OCCO4)C2)nc2ccccc21 (centres unmarked) [Example 15, N-(3-(1-(2-Cyanoethyl)-1H-benzo[d]imidazol-2-yl)cyclohexyl)-2,3-dihydrobenzo[b][1,4]dioxine-6-carboxamide]
15 | 59 | COCCn1c(C2CCCC(NC(=O)c3ccc4c(c3)OCCO4)C2)nc2ccccc21 (centres unmarked) [Example 16, N-(3-(1-(2-Methoxyethyl)-1H-benzo[d]imidazol-2-yl]cyclohexyl)-2,3-dihydrobenzo[b][1,4]dioxine-6-carboxamide]
16 | 103 | COc1cc(OC)cc(C(=O)NC2CCCC(c3nc4ccc(Br)cc4[nH]3)C2)c1 (centres unmarked) [Example 17, N-(3-(5-Bromo-1H-benzo[d]imidazol-2-yl)cyclohexyl)-3,5-dimethoxybenzamide]
17 | 100 | N#Cc1ccc2nc(C3CCCC(NC(=O)c4ccc5c(c4)OCCO5)C3)[nH]c2c1 (centres unmarked) [Example 19, N-(3-(5-Cyano-1H-benzo[d]imidazol-2-yl)cyclohexyl]-2,3-dihydrobenzo[b][1,4]dioxine-6-carboxamide]
18 | 71 | Cn1c([C@@H]2CCC[C@H](NC(=O)c3ccc4c(c3)OCCO4)C2)nc2ccccc21 [Example 21, N-((1S,3R)-3-(1-Methyl-1H-benzo[d]imidazol-2-yl)cyclohexyl)-2,3-dihydrobenzo[b](1,4]dioxine-6-carboxamide]
19 | 105 | COc1cc(OC)cc(C(=O)NC2CCCC(c3nc4ccc(C(F)(F)F)cc4[nH]3)C2)c1 (centres unmarked) [Example 24, 3,5-Dimethoxy-N-(3-(6-(trifluoromethyl)-1H-benzo[d]imidazol-2-yl]cyclohexyl)benzamide]
20 | 99 | COc1cc(OC)cc(C(=O)NC2CCCC(c3nc4cc(Cl)ccc4[nH]3)C2)c1 (centres unmarked) [Example 25, N-(3-(6-Chloro-1H-benzo[d]imidazol-2-yl)cyclohexyl]-3,5-dimethoxybenzamide]
21 | 113 | COc1cc(OC)cc(C(=O)NC2CCCC(c3nc4ccc(C)cc4n3C)C2)c1 (centres unmarked) [Example 26, N-(3-(1,6-Dimethyl-1H-benzo[d]imidazol-2-yl)cyclohexyl]-3,5-dimethoxybenzamide]
22 | 84 | COc1cc(OC)cc(C(=O)NC2CCCC(c3nc4cc(C)ccc4n3C)C2)c1 (centres unmarked) [Example 27, N-(3-(1,5-Dimethyl-1H-benzo[d]imidazol-2-yl)cyclohexyl]-3,5-dimethoxybenzamide]
23 | 103 | Cc1ccc2[nH]c(C3CCCC(NC(=O)c4ccc5c(c4)OCCO5)C3)nc2c1 (centres unmarked) [Example 28, N-(3-(5-Methyl-1H-benzo[d]imidazol-2-yl)cyclohexyl]-2,3-dihydrobenzo[b][1,4]dioxine-6-carboxamide]
24 | 102 | COc1ccc2[nH]c(C3CCCC(NC(=O)c4ccc5c(c4)OCCO5)C3)nc2c1 (centres unmarked) [Example 29, N-(3-(5-Methoxy-1H-benzo[d]imidazol-2-yl)cyclohexyl]-2,3-dihydrobenzo[b][1,4]dioxine-6-carboxamide]
25 | 102 | CN(C)c1ccc2nc(C3CCCC(NC(=O)c4ccc5c(c4)OCCO5)C3)[nH]c2c1 (centres unmarked) [Example 39]
26 | 87 | COCCNc1ccc(C(=O)N[C@@H]2CCC[C@H](c3nc4ccccc4[nH]3)C2)cn1 [Example 41, N-((1R,3S)-3-(1H-Benzo-[d]imidazol-2-yl)cyclohexyl)-6-(2-methoxyethylamino)nicotinamide]
27 | 87 | COCCNc1cc(C(=O)N[C@@H]2CCC[C@H](c3nc4ccccc4[nH]3)C2)ccn1 [Example 42, N-((1R,3S)-3-(1H-Benzo[d]imidazol-2-yl)cyclohexyl)-2-(2-methoxyethylamino)isonicotinamide]

Same assay, conditions: C3H 10T1/2, 2 μM test compound, SHh 250 ng/ml, 20 hrs, read-out: SMO CELL % INHIBITION @ 2 μM

Row | inhibition at 2 µM [%] | SMILES
28 | 98 | O=C(N[C@@H]1CCC[C@H](c2nc3ccccc3n2CCO)C1)c1ccc2c(c1)OCCO2 (stereo in doubt) [Example 71, N-{3-[1-(2-hydroxyethyl)-1H-benzimidazol-2-yl]cyclohexyl}-2,3-dihydro-1,4-benzodioxine-6-carboxamide]
29 | 81 | COc1cc(OC)cc(C(=O)N[C@@H]2CCCC(c3nc4cc(S(C)(=O)=O)ccc4[nH]3)C2)c1 (stereo in doubt) [Example 289, 3,5-dimethoxy-N-{(1R,3S)-3-[5-(methylsulfonyl)-1H-benzimidazol-2-yl]cyclohexyl} benzamide (+)-tartrate]
